# Laboratory results as given in patent US4409233A, “Highly concentrated preparations of dopa compounds” (Sankyo Company, Limited, priority 1978, dated 1983).
# What was measured:
# [1] = cited from earlier work
# [2] = Solubility of dopa compounds in water; type: physicochemical; conditions: 50 mg of dopa
volume of water necessary to dissolve the minimal dose of dopa [2] [mL],Compound,solubility in water [1] [µg/mL],solubility in water (in words) [1]
20,"NC(Cc1ccc(O)c(O)c1)C(=O)O (stereo not drawn) [dopa, β-(3,4-dihydroxyphenyl)-α-alanine]",2500,poor solubility in water
–,"C[C@](N)(Cc1ccc(O)c(O)c1)C(=O)O [methyldopa, L-3-(3,4-dihydroxyphenyl)-2-methylalanine]",–,poor solubility in water
